# Where two headings read alike, the source gives them in different places.
# Legend:
# [1] = test system: test strain 923 pPvra-lux (USA300 MRSA); experiment: Primary screen, relative growth in presence of oxacillin; conditions: compound 10 μM with oxacillin 2 μg/mL, absorbance 24 h, <0.50 = dead cells = hit
# [2] = test system: vraSR promoter (Pvra-lux reporter in strain 923); experiment: Primary screen, relative luminescence (vraSR expression)
# [3] = primary screen, compound 10 μM with oxacillin 2 μg/mL, <0.50 = vraSR repressed = hit
SMILES,RG avg (relative growth) [1],"RL avg (relative luminescence) [2, 3]",RL avg (relative luminescence) [2]
CSc1ccccc1-c1nnc(NC(=O)c2ccc(F)cc2)o1 [F2645-12],0.41,0.51,–
COc1ccc(-c2nnc(NC(=O)c3ccc(S(=O)(=O)N(C)Cc4ccccc4)cc3)o2)c(OC)c1 [F0559-398],−0.07,−0.11,–
CC(C)c1ccc(Cc2nnc(NC(=O)c3ccc4ncsc4c3)o2)cc1 [F2368-1143],−0.01,−0.09,–
O=C(Nc1nnc(-c2ccncc2)o1)c1ccc(Oc2ccccc2)cc1 [F0608-1161],0.00,−0.07,–
O=C(Nc1nnc(-c2cc(Cl)ccc2Cl)o1)c1cc(-c2ccccc2)nc2ccccc12 [F2518-55],0.00,−0.02,–
Cc1ccc(C)c(-c2nnc(NC(=O)c3ccc(Br)s3)o2)c1 [F2518-329],0.00,−0.11,–
O=C(Nc1nnc(-c2cccnc2)o1)c1cc(Cl)cc(Cl)c1 [F0608-1062],−0.04,−0.10,–
O=C(Nc1nnc(-c2ccccc2Cl)o1)c1ccc(Cl)s1 [F1374-36],0.04,0.35,–
O=C(Nc1nnc(-c2cc(Cl)sc2Cl)o1)c1ccc2ncsc2c1 [F1374-2676],0.01,0.34,–
O=C(Nc1nnc(-c2ccc(Br)cc2)o1)c1sc2ccccc2c1Cl [F2518-484],0.02,0.02,–
O=C(Nc1nnc(-c2ccncc2)o1)c1ccc(-c2ccccc2)cc1 [F0608-1080],0.03,−0.04,–
COc1cccc(-c2nnc(NC(=O)c3ccc(S(=O)(=O)N(Cc4ccccc4)C(C)C)cc3)o2)c1 [F0559-178],−0.06,−0.07,–
COC(=O)c1ccc(C(=O)Nc2nnc(-c3ccccc3Cl)o2)cc1 [F1374-55],0.28,0.47,–
O=C(Nc1nnc(-c2ccccc2)o1)c1ccc(Br)s1 [F1374-875],0.04,0.30,–
COc1ccccc1-c1nnc(NC(=O)c2ccc(S(=O)(=O)N(Cc3ccccc3)C(C)C)cc2)o1 [F0559-148],0.02,−0.04,–
COc1cccc2cc(C(=O)Nc3nnc(-c4ccc(Cl)cc4Cl)o3)oc12 [F2518-1563],0.00,−0.16,–
O=C(Nc1nnc(-c2ccc(F)cc2)o1)c1ccc(F)cc1 [F1374-116],0.00,0.34,–
CC(C)n1nccc1C(=O)Nc1nnc(-c2cc(Cl)sc2Cl)o1 [F1374-2902],0.00,0.33,–
O=C(COc1ccc(Cl)cc1)Nc1nnc(-c2ccc(Br)cc2)o1 [F2518-483],−0.02,−0.04,–
O=C(Nc1nnc(Cc2ccccc2)o1)c1cc(Cl)sc1Cl [F2368-63],−0.01,−0.02,–

SMILES,RG avg (relative growth) [1],"RL avg (relative luminescence) [2, 3]",RL avg (relative luminescence) [2]
COc1cccc(-c2nnc(NC(=O)c3ccc(Cl)cc3)o2)c1 [F1374-320],0.04,0.32,–
Cc1ccc(-c2nnc(NC(=O)c3ccc(Cl)cc3Cl)o2)c(C)c1 [F2518-166],−0.02,−0.10,–
O=C(Nc1nnc(-c2ccc3c(c2)CCCC3)o1)c1ccc2c(c1)OCCO2 [F0608-601],−0.05,−0.12,–
O=C(Nc1nnc(C2COc3ccccc3O2)o1)c1ccc(S(=O)(=O)N2CCCc3ccccc32)cc1 (stereo not drawn) [F0608-715],−0.01,−0.05,–
COc1ccccc1-c1nnc(NC(=O)c2cccc(Br)c2)o1 [F1374-224],−0.01,0.34,–
Cc1ccc(-c2nnc(NC(=O)c3ccc(F)cc3)o2)cc1C [F2767-12],0.02,0.01,–
CC1(C)COCN1S(=O)(=O)c1ccc(C(=O)Nc2nnc(-c3ccc(Cl)s3)o2)cc1 [F0559-390],−0.06,−0.11,–
COc1cccc2cc(-c3nnc(NC(=O)c4ccc5ncsc5c4)o3)oc12 [F2273-114],0.26,0.26,–
O=C(Nc1nnc(C2COc3ccccc3O2)o1)c1ccc(S(=O)(=O)N2CCc3ccccc3C2)cc1 (stereo not drawn) [F0608-728],−0.02,−0.01,–
O=C(Nc1nnc(C2=COCCO2)o1)c1cc(Cl)cc(Cl)c1 [F0608-258],−0.05,−0.06,–
Cc1ccc(C)c(-c2nnc(NC(=O)c3ccc(S(=O)(=O)N4CCCc5ccccc54)cc3)o2)c1 [F2518-342],0.00,−0.02,–
O=C(Nc1nnc(-c2cc(Cl)sc2Cl)o1)c1cccc(C(F)(F)F)c1 [F1374-2671],0.03,0.35,–
COc1ccccc1-c1nnc(NC(=O)c2ccc(S(=O)(=O)N(C)c3ccccc3)cc2)o1 [F0559-127],−0.05,−0.11,–
O=C(Nc1nnc(-c2ccc(Br)cc2)o1)c1ccc2c(c1)CCCC2 [F2518-517],0.01,−0.08,–
O=C(Nc1nnc(-c2ccc3c(c2)OCCO3)o1)c1cc(-c2ccccc2)nc2ccccc12 [F0608-46],−0.06,−0.10,–
COc1cc(OC)cc(-c2nnc(NC(=O)c3ccc(S(=O)(=O)N(CC(C)C)CC(C)C)cc3)o2)c1 [F0559-264],−0.04,−0.10,–
O=C(Nc1nnc(-c2ccco2)o1)c1ccc(Oc2ccccc2)cc1 [F0608-491],−0.06,−0.11,–
COc1cc(-c2nnc(NC(=O)c3ccc(S(=O)(=O)N(Cc4ccccc4)C(C)C)cc3)o2)cc(OC)c1OC [F0559-328],0.15,0.01,–
COc1cccc(-c2nnc(NC(=O)c3cccc(Oc4ccccc4)c3)o2)c1 [F1374-396],0.04,0.34,–
O=C(Nc1nnc(-c2ccccn2)o1)c1c(F)cccc1F [F0608-895],0.03,−0.06,–

SMILES,RG avg (relative growth) [1],"RL avg (relative luminescence) [2, 3]",RL avg (relative luminescence) [2]
O=C(COc1ccc(Cl)cc1Cl)Nc1nnc(-c2ccc(Cl)s2)o1 [F1374-1102],0.13,–,0.49
O=C(Nc1nnc(-c2ccc(Br)s2)o1)c1ccc(F)cc1 [F5093-12],0.01,−0.01,–
CCOc1ccc(C(=O)Nc2nnc(-c3ccc(Cl)s3)o2)cc1 [F1374-1129],0.00,–,0.47
Cc1ccc(-c2nnc(NC(=O)c3ccc(C(=O)c4ccccc4)cc3)o2)c(C)c1 [F2518-168],−0.03,−0.07,–
O=C(COc1ccc(Cl)cc1)Nc1nnc(-c2ccc3c(c2)CCCC3)o1 [F0608-664],−0.04,−0.01,–
Cc1ccc(-c2nnc(NC(=O)c3cccc(C(F)(F)F)c3)o2)c(C)c1 [F2518-189],0.01,−0.02,–
COc1cccc(-c2nnc(NC(=O)C(c3ccccc3)c3ccccc3)o2)c1 [F1374-379],0.47,0.34,–
CC1CN(S(=O)(=O)c2ccc(C(=O)Nc3nnc(-c4ccc(Cl)s4)o3)cc2)CC(C)O1 (stereo not drawn) [F0559-377],−0.08,−0.09,–
COc1cccc(-c2nnc(NC(=O)c3ccc(S(=O)(=O)N(C)C4CCCCC4)cc3)o2)c1 [F0559-158],0.03,−0.07,–
O=C(Nc1nnc(-c2ccc(Cl)s2)o1)c1ccc(-c2ccccc2)cc1 [F1374-1060],0.17,0.46,–
COc1ccc(-c2nnc(NC(=O)c3ccc(C(=O)c4ccccc4)cc3)o2)cc1 [F1374-443],0.05,0.39,–
Cc1ccc(C)c(-c2nnc(NC(=O)c3ccc(S(=O)(=O)N4CC(C)OC(C)C4)cc3)o2)c1 (stereo not drawn) [F2518-334],0.00,−0.04,–
CSc1ccc(-c2nnc(NC(=O)c3ccc(S(=O)(=O)N(C)Cc4ccccc4)cc3)o2)cc1 [F2645-405],0.29,0.57,–
Cc1ccccc1C(=O)Nc1nnc(-c2ccc3c(c2)CCCC3)o1 [F0608-614],0.08,−0.05,–
CCCCN(C)S(=O)(=O)c1ccc(C(=O)Nc2nnc(-c3ccc(Br)s3)o2)cc1 [F5093-101],−0.02,−0.04,–
Cc1ccc(C)c(-c2nnc(NC(=O)c3cccc(Cl)c3)o2)c1 [F2518-295],0.01,−0.09,–
O=C(Nc1nnc(-c2ccc(C(F)(F)F)cc2)o1)c1cc2ccccc2o1 [F1374-2134],0.20,0.38,–
COc1cc(-c2nnc(NC(=O)c3ccc(S(=O)(=O)N4CCCC4)cc3)o2)cc(OC)c1OC [F0559-311],−0.06,0.02,–
O=C(Nc1nnc(-c2ccc3c(c2)OCCO3)o1)c1ccc(C(=O)c2ccccc2)cc1 [F0608-19],−0.02,−0.12,–
CCN(CC)S(=O)(=O)c1ccc(C(=O)Nc2nnc(-c3cc(C)ccc3C)o2)cc1 [F2518-298],−0.02,0.06,–
